Results as given in US20240199601A1, “QUINONE COMPOUND AND PHARMACEUTICAL USE THEREOF” (NANJING SHUPENG LIFE SCIENCE CO., LTD., priority 2021, published 2024).
“Also recorded” adds a separate entry of the source. Like-named read-outs stand apart in the source and are kept apart here.

What was measured:
[1] = system: inflammatory pain model (complete Freund's adjuvant); test: Inflammatory pain model (complete Freund's adjuvant), mechanical pain threshold; type: in vivo, SD rats; conditions: for duration of the analgesic effect / analgesic effect 1.5 hours after oral administration: single oral dose (SP3101 20 mg/kg); for analgesic effect 1.5 hours after oral administration: mechanical pain threshold vs model group
Method: 4 SD rats with a body weight of 200-250 g were used as a blank control (NC), and normal saline was injected into the soles of the left feet of the rats. Inflammatory pain models of 18 rats were constructed, that is to say, 100 μL of a complete Freund's adjuvant was injected into soles of the left feet of the rats, mechanical pain thresholds of the left feet were detected by an ALMEMO2490 data collector 24 hours later, 2 rats with a pain threshold of greater than 15 were abandoned, and the other 16 rats were randomly divided into 4 groups with 4 rats in each group and then administered with water as a positive control (PC), SP3101 (20 mg/kg), PQQ (20 mg/kg) and ibuprofen (25 mg/kg/day) by gavage, respectively.

AMPK [2] = test: AMPK phosphorylation level in a variety of cells; type: cell-based; conditions: 100 nM
rats = conditions: oral, cited from earlier work
humans = conditions: cited from earlier work
[3] = cited from earlier work
[4] = beagles; cited from earlier work
acetaldehyde = conditions: 11.5 mg/kg body weight i.p. before ethanol by gavage; cited from earlier work
[5] = system: chronic constriction injury (CCI) model; conditions: CCI model of rats; cited from earlier work
[6] = cited from earlier work; remark: listed apart in the source
AMPK [7] = test: AMPK agonist test in RAW264.7 cells (protein hybridization, p-AMPK); type: cell-based; conditions: 0.1 μM, 24 hours
Method: (§1) RAW264.7 cells were inoculated into two six-well plates and enabled to grow to a density of about 90%, and SP3101 and SP3102 of different concentrations were added, respectively. 24 hours later, the cells were lysed with a radio immunoprecipitation assay (RIPA) lysis buffer, and the expression of proteins was detected by protein hybridization.
(§2) Phosphorylation of serine at the 127th site of AMPK is used as an activation marker. […] It can be seen that the compounds, represented by the SP3101 and the SP3102, of the present invention are used as an AMPK agonist.

[8] = system: antioxidant transcription factor (Nrf2); test: Nrf2 expression in RAW264.7 cells (protein hybridization); type: cell-based; conditions: different concentrations, 24 hours
Method: as §1, §2

[9] = system: autophagy related protein (LC3B); test: LC3B expression in RAW264.7 cells (protein hybridization); type: cell-based; conditions: different concentrations, 24 hours
Method: as §1, §2

[10] = 20 mg/kg/day orally for three days, rats
[11] = human volunteers, 60 mg/day for one month

O=C(O)c1cc(C(=O)O)c2c(n1)C(=O)C(=O)c1cc(C(=O)O)[nH]c1-2 [PQQ, 4,5-dihydro-4,5-dioxo-1H-pyrrolo(2,3-f)quinone-2,7,9-tricarboxylic acid]
analgesic effect 1.5 hours after oral administration on the first day [1, 10]: No analgesic effect | analgesic effect on day 2/3/4/5/6/7 [1, 10]: obvious analgesic effect | phosphorylation level of the AMPK (AMPK [2]): significantly up-regulate | Adverse response (rats; female rats, 14 days): Reversible; also recorded: Increased kidney; also recorded: Increased urine | Median lethal dose (LD50) (rats; female rats, 14 days): 500-1,000 mg/kg/day | Adverse response (rats; female rats, 91 days, 400 mg/kg/day): None | Adverse response (rats; male rats, 14 days): None | Median lethal dose (LD50) (rats; male rats, 14 days): 1,000-2,000 mg/kg/day | Adverse response (rats; male rats, 91 days, 400 mg/kg/day): None | safe dose determined by the FDA (rarely adverse events) (humans; healthy adults, body weight about 60 kg, every day): 240 mg | adverse responses (humans; [11]): no adverse responses | changes of kidney injury markers (humans; [11]): no changes of kidney injury markers | excreted by the kidney (through urine) ([3]; 24 hours after the administration): 80% | absorbed by the small intestines ([3]; after oral administration): about 60% | bioavailability [4]: about 12% | concentration of acetaldehyde vs control group (acetaldehyde): much lower concentration of acetaldehyde | concentration of ethanol in the blood and liver vs control group (acetaldehyde): no obvious differences | analgesic effect [5]: had an analgesic effect | solubility in water [6]: slightly soluble in water

CC(=O)Oc1cc(C(=O)O)c2c(n1)C(=O)C(=O)c1cc[nH]c1-2 [SP3102, 7-acetoxy-4,5-dioxo-4,5-dihydro-1H-pyrrolo[2,3-f]quinone-9-carboxylic acid]
duration of the analgesic effect ([1]; rats): 72 h | analgesic effect 1.5 hours after oral administration ([1]; rats): obvious analgesic effect | activation of AMPK (expression of p-AMPK) (AMPK [7]): obviously activate the AMPK | expression of antioxidant transcription factor (Nrf2) [8]: increased in a dose-dependent manner | expression of autophagy related protein (LC3B) [9]: also increased | phosphorylation level of the AMPK (AMPK [2]): significantly up-regulate

COc1cc(C(=O)O)c2c(n1)C(=O)C(=O)c1cc[nH]c1-2 [SP3103, 7-methoxy-4,5-dioxo-4,5-dihydro-1H-pyrrolo[2,3-f]quinone-9-carboxylic acid]
duration of the analgesic effect ([1]; rats): 72 h | analgesic effect 1.5 hours after oral administration ([1]; rats): obvious analgesic effect

CC(C)Cc1ccc(C(C)C(=O)O)cc1 (stereo not drawn) [ibuprofen]
analgesic effect 1.5 hours after each oral administration ([1]; 25 mg/kg once a day orally for 3 days, day 1/2/3, rats): obvious analgesic effect | analgesic effect before administration ([1]; 25 mg/kg once a day orally, rats, data not shown): no analgesic effect | analgesic effect on the fourth day without administration ([1]; after 25 mg/kg once a day orally for 3 days, rats): no analgesic effect
